The results in this text go back to ChEMBL document CHEMBL6071179, “New LsrK Ligands as AI-2 Quorum Sensing Interfering Compounds against Biofilm Formation” (J Med Chem, 2024).

Assay [1] relates to Pseudomonas aeruginosa. In words: Antibiofilm activity against Pseudomonas aeruginosa PAO1 at 500 ug/ml incubated for […] by crystal violet staining based microplate reader assay. The class given is functional. The settings on record: dose 500 µg/ml.
For assay [2], the system named is Staphylococcus aureus. In words: Antibiofilm activity against Staphylococcus aureus BHICC at 500 ug/ml incubated for 24 hrs by crystal violet staining based microplate reader assay. The settings on record: dose 500 µg/ml. The class given is functional.
Assay [3] has as its target T1, Autoinducer-2 kinase (Bacteria) (UniProt P77432).
T1 sequence (whole entry): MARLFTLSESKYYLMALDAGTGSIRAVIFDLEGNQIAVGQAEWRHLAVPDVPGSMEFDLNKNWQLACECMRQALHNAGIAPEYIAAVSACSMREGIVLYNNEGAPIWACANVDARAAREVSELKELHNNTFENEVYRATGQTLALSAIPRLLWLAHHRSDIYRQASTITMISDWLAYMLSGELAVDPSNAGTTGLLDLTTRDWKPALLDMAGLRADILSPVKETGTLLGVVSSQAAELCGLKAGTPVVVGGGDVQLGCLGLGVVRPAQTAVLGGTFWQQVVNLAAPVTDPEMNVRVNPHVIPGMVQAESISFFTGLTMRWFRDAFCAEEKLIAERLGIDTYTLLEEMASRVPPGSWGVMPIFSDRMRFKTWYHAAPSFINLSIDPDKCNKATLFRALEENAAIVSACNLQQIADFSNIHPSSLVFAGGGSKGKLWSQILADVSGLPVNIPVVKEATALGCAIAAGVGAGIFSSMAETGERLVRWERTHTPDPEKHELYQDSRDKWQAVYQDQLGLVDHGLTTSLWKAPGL
In words: Binding affinity to LSRK (unknown origin) assessed as change in melting temperature at 500 ug/ml by SYPRO orange staining based differential scanning fluorimetry assay. The settings on record: dose 500.0 µg/ml.

Assay [4] deals with T1, Autoinducer-2 kinase (Bacteria). The assay is described as follows: Binding affinity to LsrK (unknown origin) assessed as reduction in fluorescence intensity by intrinsic tryptophan fluorescence spectroscopy.
In assay [5] the test system is Staphylococcus aureus. In words: Inhibition of Staphylococcus aureus bacterial growth at 500 ug/ml incubated for 20 hrs by microplate reader assay. The note with it: dose 500.0 µg/ml. The class given is functional, organism-based.
Assay [6] concerns Pseudomonas aeruginosa. In words: Inhibition of Pseudomonas aeruginosa bacterial growth at 500 ug/ml incubated for 20 hrs by microplate reader assay. In kind it is functional, organism-based. The note with it: dose 500.0 µg/ml.
The subject of assay [7] is Vibrio harveyi. The assay is described as follows: Inhibition of Vibrio harveyi BB120 bacterial growth at 4 to 500 ug/ml incubated for 24 hrs by resazurin dye based microplate reader assay. The class given is functional, organism-based. The note with it: dose 4-500 µg/ml.
The test system of assay [8] is Vibrio harveyi. The assay is described as follows: Inhibition of Vibrio harveyi BB886 bacterial growth at 4 to 500 ug/ml incubated for 24 hrs by resazurin dye based microplate reader assay. The class given is functional, organism-based. The settings on record: dose 4-500 µg/ml.
Assay [9] can be described thus: Inhibition of Vibrio harveyi BB120 AI-2 mediated Quorum sensing system assessed as reduction in bioluminescence incubated for 8 hrs.
A short description of assay [10]: Inhibition of Vibrio harveyi BB170 AI-2 mediated Quorum sensing system assessed as reduction in bioluminescence incubated for 8 hrs.
A short description of assay [11]: Inhibition of Vibrio harveyi BB886 AI-1 mediated Quorum sensing system assessed as reduction in bioluminescence incubated for 8 hrs.
For assay [12], the target named is T1, Autoinducer-2 kinase (Bacteria). In words: Binding affinity to LSRK (unknown origin) assessed as change in melting temperature at 500 ug/ml in presence of ATP by SYPRO orange staining based differential scanning fluorimetry assay. The settings on record: dose 500.0 µg/ml.
Assay [13] shares this target. The assay is described as follows: Binding affinity to LsrK (unknown origin) assessed as decrease in ellipticity at 2 to 20 uM by Far-UV CD spectra. The note with it: dose 2-20 µM.
For assay [14] the target is unchanged. The assay is described as follows: Binding affinity to LsrK (unknown origin) by STD NMR assay.
Assay [15] has the same target. The assay is described as follows: Binding affinity to LsrK (unknown origin) assessed as reduction in fluorescence intensity at 1 uM by intrinsic tryptophan fluorescence spectroscopy.

pIC50: −log10 of the molar value. Activity calls are given as the source filed them. The rule behind the calls is not given here. A value given as a limit tells only on which side of the number the result lay.

Turning to `O=C(NCc1ccccc1)C1COC2(CCCCC2)OC1`, in assay [1], the MBIC50 turned out to be 40.8 µg/mL.

For `COC(=O)[C@H](C)NC(=O)[C@H](Cc1ccccc1)NC(=O)[C@@H]1COC(C)(C)O1`, the MBIC50 in assay [2] turned out to be 82.2 µg/mL; in [1], 25.4 µg/mL. The ΔTm in assay [3] was greater than 1 °C. Further, in [4], the Activity entry is “Dose-Dependent Effect”.

In assay [2], `COC(=O)[C@H](Cc1ccccc1)NC(=O)C(O)CO` (stereo partly drawn) yielded an MBIC50 of 173 µg/mL.

Take `c1ccc(-c2cc(C3COC4(CCCCC4)O3)[nH]n2)cc1` (stereo not drawn): the MBIC50 in [2] is 45.1 µg/mL; in assay [1], 22.5 µg/mL. Further, the inhibition result in assay [5] and in assay [6] was “inactive” in each case.

For the compound `O=C(N[C@@H](Cc1ccccc1)C(=O)O)C1COC2(CCCCC2)OC1`, the MBIC50 was determined as 20.6 µg/mL in [2] and 50 µg/mL in assay [1].

In assay [2], `CCOC(=O)N1CCC(=C2c3ccc(Cl)cc3CCc3cccnc32)CC1` [LORATADINE] returned an MBIC50 of 23 µg/mL.

Regarding `COC(=O)[C@H](C)NC(=O)[C@H](Cc1ccccc1)NC(=O)[C@H]1COC(C)(C)O1`, the MBIC50 in assay [2] was determined as 169.7 µg/mL; in assay [1], 31.7 µg/mL. Besides, in assay [4], the Activity result is “Dose-Dependent Effect”.

In assay [2], `O=C(NCc1ccccc1)C1COC2(CCCCC2)O1` (stereo not drawn) showed an MBIC50 of 1913 µg/mL.

As for `COC(=O)[C@H](C)NC(=O)[C@H](Cc1ccccc1)NC(=O)C1COC(C)(C)O1` (stereo partly drawn), the MBIC50 in assay [2] amounted to 152.3 µg/mL; in [1], 29.1 µg/mL. The inhibition result in assay [5], in assay [6], in assay [7], in assay [8] and in assay [11] was “inactive” throughout. The inhibition entry in assay [9] and in assay [10] was “Active” each time. Also, the ΔTm in assay [12] was greater than 2 °C.

For the compound `O=C(NCCc1ccccc1)C1COC2(CCCCC2)O1` (stereo not drawn), the MBIC50 was 92.3 µg/mL in assay [2] and 38.3 µg/mL in [1].

Consider `O=C(NCCc1ccccc1)C1COC2(CCCCC2)OC1`, for which the MBIC50 in assay [2] was 16.2 µg/mL; in assay [1] it was 6.2 µg/mL. Besides, the inhibition entry in [5], in [6], in assay [7], in assay [8] and in [11] was “inactive” throughout. The inhibition entry in [9] and in assay [10] was “Active” throughout. The ΔTm was greater than 1 °C in assay [3] and greater than 2 °C in assay [12]. Also, the Activity entry in assay [4] and in assay [13] was “Dose-Dependent Effect” throughout. In [14], the result was Active.

For the compound `COC(=O)[C@H](C)NC(=O)[C@H](Cc1ccccc1)NC(=O)C1OCC2(CCCCC2)CO1`, the MBIC50 in [2] stood at 55.9 µg/mL; in assay [1], 483 µg/mL.

`COC(=O)[C@H](Cc1ccccc1)NC(=O)C1COC2(CCCCC2)OC1` displayed an MBIC50 in assay [2] of 85.8 µg/mL.

As to `O=C(N[C@@H](Cc1ccccc1)C(=O)O)C1COC2(CCCCC2)O1` (stereo partly drawn), the MBIC50 is 61.5 µg/mL in assay [2] and 46.2 µg/mL in assay [1]. Also, the inhibition entry in [5] and in assay [6] was “inactive” each time.

For `CC1(C)OC[C@H](C(=O)N[C@@H](Cc2ccccc2)C(=O)O)O1`, the MBIC50 in assay [2] came to 25.4 µg/mL; in [1], 30.4 µg/mL. In addition, in assay [3], the ΔTm is greater than 1 °C. Besides, the Activity entry in [4] and in assay [13] was “Dose-Dependent Effect” each time. Moreover, the Flu intensity in assay [15] amounted to 6%.

`Cn1nc(-c2ccccc2)cc1C1COC2(CCCCC2)O1` (stereo not drawn) registered an MBIC50 in [2] of 55.2 µg/mL.

Take `CC(=O)N[C@@H](CS)C(=O)O` [ACETYLCYSTEINE]: the MBIC50 in assay [1] was found to be 14 µg/mL.

In the case of `CC1(C)OCC(C(=O)N[C@@H](Cc2ccccc2)C(=O)O)O1` (stereo partly drawn), the MBIC50 came out at 34.6 µg/mL in assay [2] and 27.7 µg/mL in assay [1]. The inhibition entry in assay [5], in assay [6], in assay [7], in assay [8] and in assay [11] was “inactive” in each case. Further, the inhibition result in assay [9] and in assay [10] was “Active” throughout. In assay [12], the ΔTm is greater than 2 °C.

Regarding `CCCCCCCN(CCN(CC(=O)O)CC(=O)O)CC(=O)O`, the pIC50 in [10] was 6.40.

Turning to `O=C(NCc1ccccc1)C(O)CO` (stereo not drawn), the MBIC50 in assay [2] is 128.2 µg/mL.

In [1], `CC1(C)OCC(C(=O)NCc2ccccc2)O1` (stereo not drawn) had an MBIC50 of 36.6 µg/mL.

In the case of `Cn1nc(C2COC3(CCCCC3)O2)cc1-c1ccccc1` (stereo not drawn), the MBIC50 was determined as 121.4 µg/mL in assay [2] and 373 µg/mL in [1]. Also, the inhibition result in assay [5] and in [6] was “inactive” in each case.

With `CC1(C)OC[C@@H](C(=O)N[C@@H](Cc2ccccc2)C(=O)O)O1`, the MBIC50 in [2] stood at 26.3 µg/mL; in [1], 34.4 µg/mL. Moreover, in assay [3], the thermal shift (ΔTm) was greater than 1 °C. The Activity entry in [4] and in assay [13] was “Dose-Dependent Effect” throughout. Further, the Flu intensity in [15] was determined as 12%.

On to `COC(=O)[C@H](Cc1ccccc1)NC(=O)C1COC2(CCCCC2)O1` (stereo partly drawn), for which the MBIC50 is 71.1 µg/mL in assay [2] and 60.5 µg/mL in assay [1].
